Measured values: US20260265246A1 (ICAHN SCHOOL OF MEDICINE AT MOUNT SINAI, priority 2021, published 2026)
Like-named read-outs stand apart in the source and are kept apart here.

Key:
5HT2A receptor [1] = molecular target: T1, 5HT2A receptor (Homo sapiens, UniProt P28223); test: biochemical; format: binding; design: expressed in transfected cells; crude membranes
5HT2A receptor [2] = molecular target: T1, 5HT2A receptor; test: cell-based; design: expressed in transfected cells; host or cells: HEK293T cells, transient co-transfection; conditions: BRET2 Gαq dissociation; for Emax: HEK-293T
[3] = 5HT2A Ki (nM), secondary radioligand binding, Ki from IC50 by Cheng-Prusoff
[4] = 5HT2A Gq EC50 (nM), HEK293T cells
[5] = HEK293T cells, normalized to 5-HT, read-out: 5HT2A Gq Emax (%)
[6] = 5HT2A Ki (nM), secondary binding assay, Cheng-Prusoff
[7] = HEK293T, normalized to 5-HT, read-out: 5HTA Gq Emax (%)

T1 sequence (P28223 whole entry): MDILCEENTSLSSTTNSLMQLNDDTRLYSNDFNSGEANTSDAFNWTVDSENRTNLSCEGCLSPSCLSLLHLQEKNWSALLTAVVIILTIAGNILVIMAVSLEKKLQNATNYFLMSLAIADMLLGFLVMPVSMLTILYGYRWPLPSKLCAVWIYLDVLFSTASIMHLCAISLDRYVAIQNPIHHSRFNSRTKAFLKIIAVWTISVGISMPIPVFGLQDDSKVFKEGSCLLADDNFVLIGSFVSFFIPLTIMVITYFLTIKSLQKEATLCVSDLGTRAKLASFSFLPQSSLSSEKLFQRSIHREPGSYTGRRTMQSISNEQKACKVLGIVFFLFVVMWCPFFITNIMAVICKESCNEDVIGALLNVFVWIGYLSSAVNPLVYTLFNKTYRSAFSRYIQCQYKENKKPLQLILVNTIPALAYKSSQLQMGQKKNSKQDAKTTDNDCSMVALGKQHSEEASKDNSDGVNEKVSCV

SMILES | Ki (5HT2A receptor [1]; [3]) | EC50 (5HT2A receptor [2]; [4]) | Emax (5HT2A receptor [2]; [5]) | Ki (5HT2A receptor [1]; [6]) | other results
Clc1cccc2c(C34CNCC3C4)c[nH]c12 (single isomer, unassigned) [Example 278, 3-(3-azabicyclo[3.1.0]hexan-1-yl)-7-chloro-1H-indole] |  |  |  |  | Ki (5HT2A receptor [1]; secondary binding assay, Cheng-Prusoff, read-out: 5HT2A Ki): 33 nM; 5HTA Gq Emax (%) (5HT2A receptor [2]; HEK293T, normalized to 5-HT): 58.2%; EC50 (5HT2A receptor [2]; HEK293T, read-out: 5HTA Gq EC50): 9.23 nM
C1=C(c2c[nH]c3ncc(-c4ccccc4)cc23)CNCC1 [Example 4, 5-phenyl-3-(1,2,5,6-tetrahydropyridin-3-yl)-1H-pyrrolo[2,3-b]pyridine] | 613 nM | 294 nM | 67% |  | 
COc1ccnc2[nH]cc(C3=CCCNC3)c12 [Example 10, 4-methoxy-3-(1,2,5,6-tetrahydropyridin-3-yl)-1H-pyrrolo[2,3-b]pyridine] | 312 nM | 125 nM | 66.5% |  | 
CCc1ccc2[nH]cc(C3=CCCNC3)c2c1 [Example 25, 5-ethyl-3-(1,2,5,6-tetrahydropyridin-3-yl)-1H-indole] | 941 nM | 592 nM | 73.3% |  | 
CCc1ccc2[nH]cc(C3=CCCN(C)C3)c2c1 [Example 26, 5-ethyl-3-(1-methyl-1,2,5,6-tetrahydropyridin-3-yl)-1H-indole] | 166 nM | 177 nM | 64.2% |  | 
Cn1cc(C2=CCCNC2)c2cccnc21 [Example 47, 1-methyl-3-(1,2,5,6-tetrahydropyridin-3-yl)-1H-pyrrolo[2,3-b]pyridine] | 796 nM | 379 nM | 48.7% |  | 
COc1cccc2c(C3=CCCN(C)C3)c[nH]c12 [Example 53, 7-methoxy-3-(1-methyl-1,2,5,6-tetrahydropyridin-3-yl)-1H-indole] | 374 nM | 166 nM | 77.8% |  | 
CN1CCC=C(c2c[nH]c3c(O)cccc23)C1 [Example 60, 3-(1-methyl-1,2,5,6-tetrahydropyridin-3-yl)-1H-indol-7-ol] | 795 nM | 440 nM | 64.3% |  | 
Cc1[nH]c2ccccc2c1C1=CCCNC1 [Example 61, 2-methyl-3-(1,2,5,6-tetrahydropyridin-3-yl)-1H-indole] | 805 nM | 363 nM | 67.4% |  | 
Cc1[nH]c2ccccc2c1C1=CCCN(C)C1 [Example 63, 2-methyl-3-(1-methyl-1,2,5,6-tetrahydropyridin-3-yl)-1H-indole] | 823 nM | 162 nM | 79% |  | 
CCc1[nH]c2ccccc2c1C1=CCCN(C)C1 [Example 65, 2-ethyl-3-(1-methyl-1,2,5,6-tetrahydropyridin-3-yl)-1H-indole] | 221 nM | 124 nM | 51.2% |  | 
CCc1cccc2c(C3=CCCNC3)c(Cl)[nH]c12 [Example 66, 2-chloro-7-ethyl-3-(1,2,5,6-tetrahydropyridin-3-yl)-1H-indole] | 115 nM | 213 nM | 79% |  | 
COc1cccc2c(C3=CCCN(Cc4ccccc4)C3)c[nH]c12 [Example 71, 3-(1-benzyl-1,2,5,6-tetrahydropyridin-3-yl)-7-methoxy-1H-indole] | 448 nM | 530 nM | 65.2% |  | 
CN1CCC=C(c2n[nH]c3cc(Cl)ccc23)C1 [Example 94, 6-chloro-3-(1-methyl-1,2,5,6-tetrahydropyridin-3-yl)-1H-indazole] | 1300 nM | 309 nM | 72.1% |  | 
CN1CCC=C(c2n[nH]c3ccc(C#N)cc23)C1 [Example 103, 3-(1-methyl-1,2,5,6-tetrahydropyridin-3-yl)-1H-indazole-5-carbonitrile] | 1390 nM | 612 nM | 64.9% |  | 
CCCN1CCC=C(c2n[nH]c3c(Cl)cccc23)C1 [Example 123, 7-chloro-3-(1-propyl-1,2,5,6-tetrahydropyridin-3-yl)-1H-indazole] | 140 nM | 142 nM | 66.9% |  | 
CN1CCC=C(c2c[nH]c3cnccc23)C1 [Example 135, 3-(1-methyl-1,2,5,6-tetrahydropyridin-3-yl)-1H-pyrrolo[2,3-c]pyridine] |  |  |  | 3540 nM | EC50 (5HT2A receptor [2]; 5HTA Gq EC50 (nM), HEK293T): 1610 nM; Emax (5HT2A receptor [2]; [7]): 77.8%
CN1CCC=C(c2c[nH]c3ccncc23)C1 [Example 136, 3-(1-methyl-1,2,5,6-tetrahydropyridin-3-yl)-1H-pyrrolo[3,2-c]pyridine] |  |  |  | 1810 nM | EC50 (5HT2A receptor [2]; 5HTA Gq EC50 (nM), HEK293T): 529 nM; Emax (5HT2A receptor [2]; [7]): 92.5%
Cc1ccc2[nH]cc(C3=CCCNC3)c2n1 [Example 139, 5-methyl-3-(1,2,5,6-tetrahydropyridin-3-yl)-1H-pyrrolo[3,2-b]pyridine] |  |  |  | 4180 nM | EC50 (5HT2A receptor [2]; 5HTA Gq EC50 (nM), HEK293T): 785 nM; Emax (5HT2A receptor [2]; [7]): 112%
Cc1cccc2c(C34CNCCC3C4)n[nH]c12 (centres unmarked) [Example 193, 3-(3-azabicyclo[4.1.0]heptan-1-yl)-7-methyl-1H-indazole] |  |  |  | > 10000 nM | 
CN1CCC2CC2(c2n[nH]c3c(Cl)cccc23)C1 (centres unmarked) [Example 197, 7-chloro-3-(3-methyl-3-azabicyclo[4.1.0]heptan-1-yl)-1H-indazole] |  |  |  | 1200 nM | 
Cc1cccc2c(C34CNCC3C4(F)F)n[nH]c12 (centres unmarked) [Example 200] |  |  |  | > 10000 nM | 
Fc1cccc2c(C34CNCC3C4(F)F)n[nH]c12 (centres unmarked) [Example 201, 3-(6,6-difluoro-3-azabicyclo[3.1.0]hexan-1-yl)-7-fluoro-1H-indazole] |  |  |  | 4310 nM | 
N#Cc1cccc2c(C34CNCC3C4(F)F)n[nH]c12 (centres unmarked) [Example 202, 3-(6,6-difluoro-3-azabicyclo[3.1.0]hexan-1-yl)-1H-indazole-7-carbonitrile] |  |  |  | > 10000 nM | 

SMILES | Ki (5HT2A receptor [1]; [3]) | EC50 (5HT2A receptor [2]; [4]) | Emax (5HT2A receptor [2]; [5]) | Ki (5HT2A receptor [1]; [6]) | other results
Cc1cccc2c(C3=CCNCCC3)n[nH]c12 [Example 204, 7-methyl-3-(2,5,6,7-tetrahydro-1H-azepin-4-yl)-1H-indazole] |  |  |  | 158 nM | 
Cc1cccc2c(C3=CCN(C)CCC3)n[nH]c12 [Example 205, 7-methyl-3-(1-methyl-2,5,6,7-tetrahydro-1H-azepin-4-yl)-1H-indazole] |  |  |  | 217 nM | 
Clc1cccc2c(-c3cccnc3)n[nH]c12 [Example 214, 7-chloro-3-(pyridin-3-yl)-1H-indazole] |  |  |  | > 10000 nM | 
c1cc(-c2cncnc2)c2[nH]nc(-c3cncnc3)c2c1 [Example 215, 3,7-di(pyrimidin-5-yl)-1H-indazole] |  |  |  | 3280 nM | 
Clc1cccc2c(-c3cnc[nH]3)n[nH]c12 [Example 217, 7-chloro-3-(1H-imidazol-5-yl)-1H-indazole] |  |  |  | > 10000 nM | 
Clc1cccc2c(-c3cn[nH]c3)n[nH]c12 [Example 218, 7-chloro-3-(1H-pyrazol-4-yl)-1H-indazole] |  |  |  | 1720 nM | 
Clc1cccc2c(C3=CCOCC3)n[nH]c12 [Example 220, 7-chloro-3-(3,6-dihydro-2H-pyran-4-yl)-1H-indazole] |  |  |  | > 10000 nM | 
CN1CCC(c2n[nH]c3c(Cl)cccc23)C1 (centres unmarked) [Example 222, 7-chloro-3-(1-methylpyrrolidin-3-yl)-1H-indazole] |  |  |  | 6980 nM | 
CN1CC2C=C(c3n[nH]c4c(Cl)cccc34)C1CC2 (centres unmarked) [Example 224, 6-(7-chloro-1H-indazol-3-yl)-2-methyl-2-azabicyclo[2.2.2]oct-5-ene] |  |  |  | 8880 nM | 
N#Cc1cccc2c(N3CCNCC3)n[nH]c12 [Example 231, 3-(piperazin-1-yl)-1H-indazole-7-carbonitrile] |  |  |  | 3010 nM | 
CN1CCN(c2n[nH]c3c(C#N)cccc23)CC1 [Example 233, 3-(4-methylpiperazin-1-yl)-1H-indazole-7-carbonitrile] |  |  |  | 4830 nM | 
Cc1cccc2c(N3CCN(C)CC3)n[nH]c12 [Example 234, 7-methyl-3-(4-methylpiperazin-1-yl)-1H-indazole] |  |  |  | 259 nM | 
CCCc1cccc2c(C3CCCN(C)C3)c[nH]c12 (centres unmarked) [Example 235, 3-(1-methylpiperidin-3-yl)-7-propyl-1H-indole] |  |  |  | 5550 nM | 
CCCc1cccc2c(C3=CCCNC3)n[nH]c12 [Example 236] |  |  |  | 294 nM | 
CN1CC=C(c2n[nH]c3c(Cl)cccc23)CC1 [Example 239, 7-chloro-3-(1-methyl-1,2,3,6-tetrahydropyridin-4-yl)-1H-indazole] |  |  |  | 603 nM | 
CN1CCC(c2n[nH]c3c(Cl)cccc23)CC1 [Example 240, 7-chloro-3-(1-methylpiperidin-4-yl)-1H-indazole] |  |  |  | 378 nM | 
CCCN1CC=C(c2n[nH]c3c(Cl)cccc23)CC1 [Example 242, 7-chloro-3-(1-propyl-1,2,3,6-tetrahydropyridin-4-yl)-1H-indazole] |  |  |  | 330 nM | 
CCCN1CCOC(c2c[nH]c3c(Cl)cccc23)C1 (centres unmarked) [Example 247, 2-(7-chloro-1H-indol-3-yl)-4-propylmorpholine] |  |  |  | 2560 nM | 
CC(C)N1CCOC(c2c[nH]c3c(Cl)cccc23)C1 (centres unmarked) [Example 248, 2-(7-chloro-1H-indol-3-yl)-4-isopropylmorpholine] |  |  |  | 5890 nM | 
Clc1cccc2c(C3CN4CCC3CC4)c[nH]c12 (centres unmarked) [Example 251, 3-(7-chloro-1H-indol-3-yl)quinuclidine] |  |  |  | 1100 nM | 
Cc1cccc2c(C3=CN4CCC3CC4)c[nH]c12 [Example 252, 3-(7-methyl-1H-indol-3-yl)-1-azabicyclo[2.2.2]oct-2-ene] |  |  |  | 6020 nM | 
Cc1cccc2c(C3CN4CCC3CC4)c[nH]c12 (centres unmarked) [Example 253, 3-(7-methyl-1H-indol-3-yl)quinuclidine] |  |  |  | > 10000 nM | 
Cc1cc(Br)cc2c(C3CNC3)c[nH]c12 [Example 265, 3-(azetidin-3-yl)-5-bromo-7-methyl-1H-indole] |  |  |  | 217 nM | 
Clc1cc(Cl)c2[nH]cc(C3CNC3)c2c1 [Example 266, 3-(azetidin-3-yl)-5,7-dichloro-1H-indole] |  |  |  | 244 nM | 
